Residues, ends and D or L forms follow the SMILES beside them. *: point of attachment. For = O=C*
Assays:
[1] = target: T1, EC 3.5.1.27 PDF (Fe^2+) enzyme (Escherichia coli, UniProt P0A6K3); experiment: Deformylation reactions with PDF (Fe^2+), free amino compound determined by TNBS; format: biochemical, E. coli; conditions: for yield (%) of deformylated product: 100 mM substrate, 0.2 mM PDF (Fe^2+), MES/KOH pH 6.2, 250 mM KCl, 37° C., after 10 hours; for inhibition of the PDF in the deformylation of F-α-AP and F-α-APM: presence of the β-form
T1 construct: made in house; host or cells: E. coli (overproducing cells)
T1 sequence (P0A6K3 1-169): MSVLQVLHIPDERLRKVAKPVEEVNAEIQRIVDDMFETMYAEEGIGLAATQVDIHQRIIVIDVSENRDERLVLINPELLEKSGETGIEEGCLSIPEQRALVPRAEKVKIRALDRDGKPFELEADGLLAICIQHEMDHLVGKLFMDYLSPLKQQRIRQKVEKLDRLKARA
Method: An EC 3.5.1.27 PDF (Fe^2+) enzyme was isolated from overproducing E. coli cells grown at 30° C. in 1.6 l TB medium for 14-16 hours. […] After washing with 120 ml of 20 mM Hepes/KOH, 100 mM KF, 0.2 mM TCEP, pH 7.7, the PDF (Fe^2+) was eluted with 150 ml 20 mM Hepes/KOH, 100 mM KCl, 0.2 mM TCEP, pH 7.7. […] After adjustment of the TCEP concentration to 1 mM and protein concentration to 40 mg/ml PDF (Fe^2+) was stored frozen at −60° C.
Compounds (100 mM) as indicated in Table 2 for each separate Example were incubated in the presence of 100 mM aqueous 2-(N-morpholino)-ethanesulphonic acid (MES)/KOH buffer pH=6.2 and 250 mM KCl at 37° C. […] Following a brief centrifugation, the amount of deformylated compounds in the supernatant was determined by trinitrobenzene sulphonic acid (TNBS) according to the method of Fields (Methods in Enzymology, 25, 464-468 (1972)), using ε420=21.2 mM^−1 cm^−1. The amount of (deformylated) compound each time was corrected for the intrinsic amount of free amino compound which was detected without incubation with the PDF.
The product yields indicated are the yields after 10 hours of reaction time.
In addition, the catalytic properties of the PDF in the deformylation reactions of F-α-AP and F-α-APM (in particular the initial reaction rates for deformylation in resp. 1 hour for F-α-APM and 3 hours for F-α-AP) were determined by performing the reactions of Examples 1 and 2 at various substrate concentrations from 2-140 mM. In particular, the following catalytic properties of the enzyme were determined: […]

penicillin-acylase = conditions: after 36 hours, 50 U of enzyme and 2 g of F-α-APM; cited from earlier work
[2] = test system: immobilized penicillin-acylase; experiment: Comparative Example D: deformylation of F-α-APM with penicillin-acylase, TLC; format: biochemical; conditions: 1 g F-α-APM in 25 ml, 0.2 g enzyme preparation, pH 6,5, 37° C., 48 hours
Method: 1 g of F-α-APM was dissolved in 25 ml of distilled water and the pH was adjusted to 6,5 by the addition of 0.1 M aqueous NaOH. Then, 0.2 g of an immobilized penicillin-acylase preparation was added. The reaction mixture was allowed to stand for 48 hours at 37° C. At regular time intervals during the reaction, samples were taken and analyzed by thin layer chromatography using α-APM as a reference substance.

[3] = Activity assay of isolated PDF (Fe^2+); format: biochemical; conditions: 5 mM formylmethionyl-alanine, 30° C., pH=7.2
Method: An EC 3.5.1.27 PDF (Fe^2+) enzyme was isolated from overproducing E. coli cells grown at 30° C. in 1.6 l TB medium for 14-16 hours. About 13 g (wet weight) of cell paste were suspended in 26 ml buffer (20 mM Hepes/KOH, 100 mM KF, pH 7.7 supplemented with 10 μg/ml catalase from bovine liver (Boehringer Mannheim) and 1 mM AEBSF, disintegrated by sonification (Branson B12, 20 min) at 0° C. and centrifuged at 200.000 g for 1 hour. The clear supernatant (1.3 g of protein; according to biurete reaction) was mixed with 1.3 ml 10% (w/v) Polymin G-35 (BASF) adjusted to pH 7.7 and centrifuged at 40.000 g for 10 minutes. The supernatant was applied to a 20 ml Met-Lys-Sepharose column that had been equilibrated with 20 mM Hepes/KOH, 100 mM KF, 0.2 mM TCEP, pH 7.7. After washing with 120 ml of 20 mM Hepes/KOH, 100 mM KF, 0.2 mM TCEP, pH 7.7, the PDF (Fe^2+) was eluted with 150 ml 20 mM Hepes/KOH, 100 mM KCl, 0.2 mM TCEP, pH 7.7. The protein containing fractions were concentrated by ultrafiltration using an Amicon PM10 membrane (yield: 140 mg protein, having an activity of 800 IU/mg; assay conditions: 5 mM formylmethionyl-alanine, 30° C., pH=7.2). After adjustment of the TCEP concentration to 1 mM and protein concentration to 40 mg/ml PDF (Fe^2+) was stored frozen at −60° C.

[4] = substrate: O=CN[C@@H](CC(=O)N[C@@H](Cc1ccccc1)C(=O)O)C(=O)O; experiment: Deformylation reactions with PDF (Fe^2+), free amino compound determined by TNBS; format: biochemical, E. coli; conditions: other: PDF (Fe^2+), pH 6.2, 37° C.
[5] = substrate: O=CN[C@@H](CC(=O)O)C(=O)N[C@@H](Cc1ccccc1)C(=O)O; experiment: as above; format: biochemical, E. coli; conditions: other: substrate concentrations 2-140 mM, initial reaction rates
[6] = substrate: COC(=O)[C@H](Cc1ccccc1)NC(=O)[C@H](CC(=O)O)NC=O; experiment: as above; format: biochemical, E. coli; conditions: other: substrate concentrations 2-140 mM, initial reaction rates
[7] = substrate: COC(=O)[C@H](Cc1ccccc1)NC(=O)C[C@H](NC=O)C(=O)O; experiment: as above; format: biochemical, E. coli; conditions: other: PDF (Fe^2+), pH 6.2, 37° C.

O=CN[C@@H](CC(=O)O)C(=O)O [F-Asp, N-formyl-L-aspartic acid]
yield (%) of deformylated product [1]: 0.5%

O=CN[C@@H](CC(=O)O)C(=O)N[C@@H](Cc1ccccc1)C(=O)O [F-α-AP, N-formyl-α-L-aspartyl-L-phenylalanine] (For-Asp-Phe-OH)
yield (%) of deformylated product [1]: 21.6%

COC(=O)[C@H](Cc1ccccc1)NC(=O)[C@H](CC(=O)O)NC=O [F-α-APM, N-formyl-α-L-aspartyl-L-phenylalanine methyl ester] (For-Asp-Phe-OMe)
yield of deformylation (penicillin-acylase): 20% | formation of α-APM from F-α-APM [2]: In none of the samples taken, formation of α-APM from F-α-APM could be demonstrated | yield (%) of deformylated product [1]: 44.2%

O=CN[C@@H](CC(=O)N[C@@H](Cc1ccccc1)C(=O)O)C(=O)O [F-β-AP, N-formyl-β-L-aspartyl-L-phenylalanine]
yield (%) of deformylated product [1]: 1.1% | inhibition of the PDF in the deformylation of F-α-AP and F-α-APM [1]: does not give any inhibition

COC(=O)[C@H](Cc1ccccc1)NC(=O)C[C@H](NC=O)C(=O)O [F-β-APM, N-formyl-β-L-aspartyl-L-phenylalanine methyl ester]
yield (%) of deformylated product [1]: 0.2% | inhibition of the PDF in the deformylation of F-α-AP and F-α-APM [1]: does not give any inhibition

B1: PDF (Fe^2+): EC 3.5.1.27 formylmethionyl peptide deformylase with Fe^2+ co-factor, isolated from overproducing E. coli cells (protein, UniProt P0A6K3 2-169, looked up)
Peptide deformylase: SVLQVLHIPDERLRKVAKPVEEVNAEIQRIVDDMFETMYAEEGIGLAATQVDIHQRIIVIDVSENRDERLVLINPELLEKSGETGIEEGCLSIPEQRALVPRAEKVKIRALDRDGKPFELEADGLLAICIQHEMDHLVGKLFMDYLSPLKQQRIRQKVEKLDRLKARA
modifications: Fe2+ cofactor
notes: EC 3.5.1.27 formylmethionyl peptide deformylase with Fe^2+ co-factor, isolated from overproducing E. coli cells
activity of the enzyme [3]: 800 IU/mg

B2: EC 3.5.1.27 PDF (Fe^2+) enzyme (Escherichia coli K-12) (protein)
chain: T1 sequence (P0A6K3 1-169)
notes: made in house; host or cells: E. coli (overproducing cells)
kcat/Km [4]: < 0.0001 M⁻¹ s⁻¹ | Km [5]: 12.3 mM | kcat [5]: 0.00333 s⁻¹ | kcat/Km [5]: 0.27 M⁻¹ s⁻¹ | Km [6]: 25.3 mM | kcat [6]: 0.0117 s⁻¹ | kcat/Km [6]: 0.46 M⁻¹ s⁻¹ | kcat/Km [7]: < 0.0001 M⁻¹ s⁻¹

— US6617127B2, “Synthesis and recovery of aspartame involving enzymatic deformylation step” (Holland Sweetener Company, V.O.F., priority 1998, dated 2003)
